Structures are written as SMILES. A value given as a limit tells only on which side of the number the result lay.

Common to all, as to format: physicochemical
The nature of one series: Solubility in water.
The nature of series [1]: Microelectrophoresis: zeta-potential of coated organic microcrystals. How it is done:
The layer-by-layer assembly of polyelectrolytes onto FDA or PYR microcrystals was carried out as follows: 50 mg of finely milled core particles (FDA or PYR) were first thoroughly mixed with 12 mL of 0.2–0.4 wt % of the dispersing agent (ionic surfactant, lipid or charged polymer). Crystalline fluorescein diacetate or pyrene can be milled to fine particles using e.g. a mortar and pestle. However, also advanced ball milling procedures can be used.
The crystals were suspended by their immediate sonication for 5 min. The suspension was allowed to stand for 30 min, thus allowing the larger crystals to sediment, or gently centrifuged. The turbid white supernatant was then extracted, centrifuged and washed several times, and finally resuspended in water.
The resulting microcrystal particles were then layer-by-layer coated with PSS and PAH.^18 When positively charged surfactants or DPPC were used as the first layer, 1 mL of PSS solution (5 mg mL^−1, containing 0.5 M NaCl) was added first. PAH solution (1 mL of 5 mg mL^−1, containing 0.5 M NaCl) was added first when PSS or SDS were adsorbed onto the microcrystals. After an adsorption time of 15 min for PAH or PSS adsorption, the suspension was centrifuged at 3000 g for 5 min. The supernatant was then removed and three cycles of water washing and redispersing were applied to remove the excess unadsorbed polyelectrolyte in solution. Subsequent polyelectrolyte layers, bearing an opposite charge to that already adsorbed on the particle, were deposited in identical fashion to produce multilayer-coated microcrystals. In some cases, the fluorescently labeled polyelectrolyte, PAH-FITC, was applied (as a 2 mg mL^−1 solution containing 0.5 M NaCl) to form a fluorescent layer on the microcrystal surface.
The microelectrophoretic mobility of coated organic microcrystals was measured with a malvern Zetasizer 4 by taking the average of 5 measurements at the stationary level. The mobilities (μ) were converted to the electrophoretic potentials (ζ) using the Smoluchowski relation ζ=μη/ε, where η and ε are the viscosity and permittivity of the solution, respectively.^25 All measurements were performed on microcrystals re-dispersed in air-equilibrated pure water (pH ˜5.6).

The nature of series [2]: Release experiments: removal of the microcrystal core by ethanol, fluorescence of supernatant. Particulars: control without polyelectrolyte multilayer. Here is the method: Direct proof that a polymer multilayer cage encapsulated the microcrystals was obtained by removing the templated core. The release behaviour of the pyrene and fluoresceine diacetate molecules, from dissolution of the core templates, through the polymer capsule wall can be investigated by using fluorescence spectroscopy. Following centrifugation of the coated microcrystal suspensions that were exposed to ethanol, the supernatant was assessed for either pyrene or fluoresceine at regular time intervals.
12 mL of solvent (ethanol or ethanol/water mixtures) were dispensed into 15 mL tubes. 0.1 mL of the coated microcrystal suspension of Example 3 was then quickly added to each tube and after defined times (2, 5, 10 min etc.) the suspension was centrifuged at 3000 g for 5 min. A portion of the supernatant was removed and tested for the presence of PYR of FDA by fluorescence. For PYR, the fluorescence emission intensity of the supernatant was measured directly by using an excitation wavelength (λex) of 350 nm and monitoring the emission (λem) at 373 nm. FDA was first hydrolyzed into fluorescein either by treatment with esterase or dilute base prior to fluorescence measurement (λex=492 nm, λem=513 nm). As control experiments, the release characteristics of uncoated particles was also studied as outlined above.

Setting [3] is: SDS-dispersed crystals, layer No. 2, coating PAH.
The mark [4] stands for this setting: SDS-dispersed crystals, layer No. 3, coating PSS.
[5] abbreviates: SDS-dispersed crystals, layer No. 4, coating PAH.
The mark [6] stands for this setting: SDS-dispersed crystals, layer No. 5, coating PSS.
The mark [7] stands for this setting: SDS-dispersed crystals, layer No. 6, coating PAH-FTTC.
Setting [8] is: crystals, layer No. 1, coating SDS detergent, pure water pH ~5.6.

As to `CC(=O)Oc1ccc2c(c1)Oc1cc(OC(C)=O)ccc1C21OC(=O)c2ccccc21` [Fluorescein diacetate, fluorescein diacetate], in the series “Solubility in water”, the solubility in water entry is “very low solubility in water”. In addition, the ζ-potential is given as −50 mV in series [1] (SDS dispersed crystals (FIG. 2a)), “+20 mV” in series [1] (microcrystals dispersed with DPPC (FIG. 2b)) and −40 mV in series [1] (microcrystals exposed to PSS (FIG. 2b)). The Zeta-potential entry in series [1] (setting [3]) was “+42.9 mV”; in series [1] (setting [4]), −37.7 mV; in series [1] (setting [5]), “+51.5 mV”; in series [1] (setting [6]) it was −42.2 mV; in series [1] (setting [7]), “+48.2 mV”; in series [1] (setting [8]) it was -85 mV.
For the molecule `c1cc2ccc3cccc4ccc(c1)c2c34` [Pyrene], the Zeta-potential entry in series [1] (setting [3]) is “+59 mV”; in series [1] (setting [4]), −46.5 mV; in series [1] (setting [5]), “+54.3 mV”; in series [1] (setting [6]) it was −37.2 mV; in series [1] (setting [7]), “+47.3 mV”; in series [1] (setting [8]), −68.5 mV. For the same molecule, the ζ-potential entry in series [1] (crystals exposed to DDDAB (FIG. 2a)) is reported as “+50 mV”. For the same molecule, the “time for removal of core upon addition of ethanol” value in series [2] (DDDAB-dispersed (surfactant-coated) microcrystals) and in series [2] (PSS-dispersed (PSS-coated) microcrystals) was no more than 30 min throughout.

The values above are taken from patent US7045146B2, “Templating of solid particles by polymer multilayers” (Max-Planck-Gesellschaft zur Forderung der Wissenschaften …, priority 2000, dated 2006).
